Test results as given in ChEMBL document CHEMBL1137781, “Synthesis and preclinical evaluation of novel PET probes for P-glycoprotein function and expression” (J Med Chem, 2009).

Tests used:
NCI/ADR-RES [1] = test: Inhibition of Pgp in human MCF7/ADR cells assessed as increase in doxorubicin accumulation at 20 uM relative to untreated control; format: cell-based
Caco-2 = test: Ratio of permeability from basolateral to apical side over apical to basolateral side in human Caco-2 cells; format: ADME, cell-based
NCI/ADR-RES [2] = test: Inhibition of Pgp in human MCF7/ADR cells assessed as potentiation of doxorubicin-induced cytotoxicity at 20 uM relative to untreated control; format: cell-based; parameters: Activity: scale not given: the % may be the effect or the level left

SMILES | fold change (FC) (NCI/ADR-RES [1]) | Ratio (Caco-2) | fold change (FC) (NCI/ADR-RES [2]) | Activity (NCI/ADR-RES [2]) [%]
COc1cc2c(cc1OC)CN(CC/C=C1\CCCc3c(OC)cccc31)CC2 | 5.7 | 1.6 | 95 | 
COc1cc2c(cc1OC)CN(CCCC1CCCc3c(OC)cccc31)CC2 (stereo unspecified) | 4.8 | 18 |  | 85
